Measurements from patent US7951802B2, “Use of 7-azaindoles in the inhibition of c-Jun N-terminal kinase” (Eisai R&D Management Co., Ltd., priority 2007, dated 2011).

Target: JNK3 (Homo sapiens, UniProt P53779)
Assay: JNK3 SPA assay (phosphorylation of GST-c-Jun)
Type: biochemical
Settings: 3.33 μM ATP, GST-c-Jun substrate, read-out: IC50 against JNK3
Protocol: JNK1, JNK2, JNK3—SPA Assay
JNK1, JNK2, JNK3—SPA Assay • 1. Compound is dissolved in DMSO to a convenient concentration and this is diluted in 10% DMSO to a five times concentrate of the desired starting concentration (frequently 1:100). • 2. 10 μl of 500 mM EDTA is added to alternative wells of the Opti-plate row, which will receive kinase reaction plus DMSO. This creates the negative control. • 3. For the JNK2 and JNK3 assay, compounds are prepared in six 2-fold dilutions with water and each concentration is tested in duplicate. For the JNK1 assay compounds are prepared in four 5-fold dilutions with water which are tested in triplicate. Controls are treated identically. • 4. 20 μl per well of each compound concentration is transferred to an Opti-plate, in duplicate. • 5. 30 μl (JNK2/3 SPA) or 50 μl (JNK1 SPA) of substrate solution (25 mM HEPES pH 7.5, 10 mM magnesium acetate with 3.33 μM ATP (JNK2/3) or 2 μM ATP (JNK1), approximately 7.5 kBq [γ-^33P] ATP, GST-c-Jun, in water) is added to each well. • 6. 50 μl (JNK2/3 SPA) or 30 μl (JNK1 SPA) of kinase solution (JNK in 25 mM HEPES pH 7.5, 10 mM Mg Acetate) is added to each well.
• 7. The plate is incubated for 30 minutes at room temperature. • 8. 100 μl of bead/stop solution is added to each well (5 mg/ml glutathione-PVT-SPA beads, 40 mM ATP in PBS). • 9. Plates are sealed and incubated for 30 minutes at room temperature, centrifuged for 10 minutes at 2500 g and counted. • 10. The IC50 values are calculated as the concentration of the compound being tested at which the phosphorylation of c-Jun is decreased to 50% of the control value.

JNK3, sequence (P53779 whole entry, species assumed): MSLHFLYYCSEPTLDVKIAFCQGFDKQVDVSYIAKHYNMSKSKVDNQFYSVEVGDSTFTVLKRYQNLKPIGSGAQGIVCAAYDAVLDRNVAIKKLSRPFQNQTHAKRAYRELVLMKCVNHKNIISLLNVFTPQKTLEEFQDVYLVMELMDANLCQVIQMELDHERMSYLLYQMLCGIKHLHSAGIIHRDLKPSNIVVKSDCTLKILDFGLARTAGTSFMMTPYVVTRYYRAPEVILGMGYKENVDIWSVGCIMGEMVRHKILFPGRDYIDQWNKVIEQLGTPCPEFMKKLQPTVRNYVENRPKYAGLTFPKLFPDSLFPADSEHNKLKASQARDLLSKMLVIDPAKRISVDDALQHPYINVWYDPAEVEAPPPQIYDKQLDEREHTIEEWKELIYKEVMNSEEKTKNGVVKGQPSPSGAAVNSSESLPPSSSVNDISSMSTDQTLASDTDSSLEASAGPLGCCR

SMILES	IC50
CCC1CC=C(c2cnc3[nH]cc(-c4csc(C(=O)N5CCOCC5)n4)c3c2)CC1 (stereo not shown) [Compound I-27, {4-[5-(4-Ethyl-cyclohex-1-enyl)-1H-pyrrolo[2,3-b]pyridin-3-yl]-thiazol-2-yl}-morpholin-4-yl-methanone]	0.447 µM
FC(F)(F)c1csc(-c2c[nH]c3ncc([C@H]4CC[C@H](N5CCOCC5)CC4)cc23)n1 [Compound I-69, 4-((1r,4r)-4-(3-(4-(trifluoromethyl)thiazol-2-yl)-1H-pyrrolo[2,3-b]pyridin-5-yl)cyclohexyl)morpholine]	0.447 µM
Cc1nc(-c2c[nH]c3ncc(C4CCCCC4)cc23)cs1 [Compound I-58, 4-(5-cyclohexyl-1H-pyrrolo[2,3-b]pyridin-3-yl)-2-methylthiazole]	> 2 µM
c1nc(-c2c[nH]c3ncc([C@H]4CC[C@H](N5CCCOCC5)CC4)cc23)cs1 [Compound I-116, 4-((1r,4r)-4-(3-(thiazol-4-yl)-1H-pyrrolo[2,3-b]pyridin-5-yl)cyclohexyl)-1,4-oxazepane]	> 2 µM
Cc1cnc(-c2c[nH]c3ncc([C@H]4CC[C@H](N5CCOCC5)CC4)cc23)s1 [Compound I-62, 4-((1r,4r)-4-(3-(5-methylthiazol-2-yl)-1H-pyrrolo[2,3-b]pyridin-5-yl)cyclohexyl)morpholine]	0.871 µM
CN1CCC(c2nc(-c3c[nH]c4ncc([C@H]5CC[C@H](N6CCOCC6)CC5)cc34)cs2)CC1 [Compound I-94, 4-((1r,4r)-4-(3-(2-(1-methylpiperidin-4-yl)thiazol-4-yl)-1H-pyrrolo[2,3-b]pyridin-5-yl)cyclohexyl)morpholine]	0.692 µM
CN1CCC(c2nc(-c3c[nH]c4ncc([C@H]5CC[C@H](N6CCCC6)CC5)cc34)cs2)CC1 [Compound I-98, 2-(1-methylpiperidin-4-yl)-4-(5-((1r,4r)-4-(pyrrolidin-1-yl)cyclohexyl)-1H-pyrrolo[2,3-b]pyridin-3-yl)thiazole]	0.794 µM
CN1CCN([C@H]2CC[C@@H](c3cnc4[nH]cc(-c5nc(C(F)(F)F)cs5)c4c3)CC2)CC1 [Compound I-83, 2-(5-((1s,4s)-4-(4-methylpiperazin-1-yl)cyclohexyl)-1H-pyrrolo[2,3-b]pyridin-3-yl)-4-(trifluoromethyl)thiazole]	0.603 µM
CN1CCCC1c1nc(-c2c[nH]c3ncc([C@H]4CC[C@H](N5CCCC5)CC4)cc23)cs1 (stereo partly shown) [Compound I-111, 2-(1-methylpyrrolidin-2-yl)-4-(5-((1r,4r)-4-(pyrrolidin-1-yl)cyclohexyl)-1H-pyrrolo[2,3-b]pyridin-3-yl)thiazole]	1.74 µM
Cc1nc(-c2c[nH]c3ncc([C@H]4CC[C@@H](N5CCOCC5)CC4)cc23)cs1 [Compound I-56, 4-((1s,4s)-4-(3-(2-methylthiazol-4-yl)-1H-pyrrolo[2,3-b]pyridin-5-yl)cyclohexyl)morpholine]	> 2 µM
Cc1csc(-c2c[nH]c3ncc([C@H]4CC[C@H](N5CCOCC5)CC4)cc23)n1 [Compound I-61, 4-((1r,4r)-4-(3-(4-methylthiazol-2-yl)-1H-pyrrolo[2,3-b]pyridin-5-yl)cyclohexyl)morpholine]	0.575 µM
CN1CCC(c2nc(-c3c[nH]c4ncc(C5=CCC(N6CCOCC6)CC5)cc34)cs2)CC1 (stereo not shown) [Compound I-100, 4-(4-(3-(2-(1-methylpiperidin-4-yl)thiazol-4-yl)-1H-pyrrolo[2,3-b]pyridin-5-yl)cyclohex-3-enyl)morpholine]	0.447 µM
CN1CCC(c2nc(-c3c[nH]c4ncc(C5=CCC(N6CCCOCC6)CC5)cc34)cs2)CC1 (stereo not shown) [Compound I-101, 4-(4-(3-(2-(1-methylpiperidin-4-yl)thiazol-4-yl)-1H-pyrrolo[2,3-b]pyridin-5-yl)cyclohex-3-enyl)-1,4-oxazepane]	0.363 µM
c1csc(-c2c[nH]c3ncc([C@H]4CC[C@H](N5CCCOCC5)CC4)cc23)n1 [Compound I-119, 4-((1r,4r)-4-(3-(thiazol-2-yl)-1H-pyrrolo[2,3-b]pyridin-5-yl)cyclohexyl)-1,4-oxazepane]	1.05 µM
c1sc(N2CCCC2)nc1-c1c[nH]c2ncc([C@H]3CC[C@H](N4CCCOCC4)CC3)cc12 [Compound I-122, 5-[trans-4-(1,4-oxazepan-4-yl)cyclohexyl]-3-(2-pyrrolidin-1-yl-1,3-thiazol-4-yl)-1H-pyrrolo[2,3-b]pyridine]	1.29 µM
CN1CCCC1c1nc(-c2c[nH]c3ncc([C@H]4CC[C@@H](N5CCOCC5)CC4)cc23)cs1 (stereo partly shown) [Compound I-108, 4-((1s,4s)-4-(3-(2-(1-methylpyrrolidin-2-yl)thiazol-4-yl)-1H-pyrrolo[2,3-b]pyridin-5-yl)cyclohexyl)morpholine]	1.23 µM
COc1nc(-c2c[nH]c3ncc([C@H]4CC[C@H](N5CCOCC5)CC4)cc23)cs1 [Compound I-120, 4-((1r,4r)-4-(3-(2-methoxythiazol-4-yl)-1H-pyrrolo[2,3-b]pyridin-5-yl)cyclohexyl)morpholine]	0.479 µM

Stronger by IC50, values ahead:

IC50	SMILES
0.198 µM	O=C(c1nc(-c2c[nH]c3ncc([C@H]4CC[C@H](N5CCOCC5)CC4)cc23)cs1)N1CCCCC1 [Compound I-33, (4-(5-((1r,4r)-4-morpholinocyclohexyl)-1H-pyrrolo[2,3-b]pyridin-3-yl)thiazol-2-yl)(piperidin-1-yl)methanone]
0.309 µM	CN1CCC(c2csc(-c3c[nH]c4ncc([C@H]5CC[C@@H](N6CCOCC6)CC5)cc34)n2)CC1 [Compound I-79, 4-((1s,4s)-4-(3-(4-(1-methylpiperidin-4-yl)thiazol-2-yl)-1H-pyrrolo[2,3-b]pyridin-5-yl)cyclohexyl)morpholine]
0.295 µM	CN1CCC(c2csc(-c3c[nH]c4ncc([C@H]5CC[C@H](N6CCOCC6)CC5)cc34)n2)CC1 [Compound I-78, 4-((1r,4r)-4-(3-(4-(1-methylpiperidin-4-yl)thiazol-2-yl)-1H-pyrrolo[2,3-b]pyridin-5-yl)cyclohexyl)morpholine]
0.038 µM	O=C(c1nc(-c2c[nH]c3ncc(C4=CCCC4)cc23)cs1)N1CCOCC1 [Compound I-3, [4-(5-Cyclopent-1-enyl-1H-pyrrolo[2,3-b]pyridin-3-yl)-thiazol-2-yl]-morpholin-4-yl-methanone]
0.117 µM	CC1CCC(c2cnc3[nH]cc(-c4csc(C(=O)N(C)C)n4)c3c2)CC1 (stereo not shown) [Compound I-19, 4-[5-(4-Methyl-cyclohexyl)-1H-pyrrolo[2,3-b]pyridin-3-yl]-thiazole-2-carboxylic acid dimethylamide]
0.302 µM	CCOc1nc(-c2c[nH]c3ncc([C@H]4CC[C@H](N5CCOCC5)CC4)cc23)cs1 [Compound I-63, 4-((1r,4r)-4-(3-(2-ethoxythiazol-4-yl)-1H-pyrrolo[2,3-b]pyridin-5-yl)cyclohexyl)morpholine]
0.138 µM	CC1CCC(c2cnc3[nH]cc(-c4csc(C(=O)N5CCCCC5)n4)c3c2)CC1 (stereo not shown) [Compound I-20, {4-[5-(4-Methyl-cyclohexyl)-1H-pyrrolo[2,3-b]pyridin-3-yl]-thiazol-2-yl}-piperidin-1-yl-methanone]
0.229 µM	O=C(c1nc(-c2c[nH]c3ncc([C@H]4CC[C@@H](N5CCOCC5)CC4)cc23)cs1)N1CCCCC1 [Compound I-30, (4-(5-((1r,4r)-4-morpholinocyclohexyl)-1H-pyrrolo[2,3-b]pyridin-3-yl)thiazol-2-yl)(piperidin-1-yl)methanone]
0.11 µM	c1ncc(-c2c[nH]c3ncc([C@H]4CC[C@H](N5CCOCC5)CC4)cc23)s1 [Compound I-60, 4-((1r,4r)-4-(3-(thiazol-5-yl)-1H-pyrrolo[2,3-b]pyridin-5-yl)cyclohexyl)morpholine]
0.105 µM	CC1CC=C(c2cnc3[nH]cc(-c4csc(C(=O)N5CCN(C)CC5)n4)c3c2)CC1 (stereo not shown) [Compound I-14, {4-[5-(4-Methyl-cyclohex-1-enyl)-1H-pyrrolo[2,3-b]pyridin-3-yl]-thiazol-2-yl}-(4-methyl-piperazin-1-yl)-methanone]
0.229 µM	C1=C(c2cnc3[nH]cc(-c4nccs4)c3c2)CCCC1 [Compound I-24, 2-(5-cyclohexenyl-1H-pyrrolo[2,3-b]pyridin-3-yl)thiazole]
0.016 µM	O=C(c1nc(-c2c[nH]c3ncc(C4CCC5(CC4)OCCO5)cc23)cs1)N1CCCCC1 [Compound I-25, {4-[5-(1,4-Dioxa-spiro[4.5]dec-8-yl)-1H-pyrrolo[2,3-b]pyridin-3-yl]-thiazol-2-yl}-piperidin-1-yl-methanone]
0.324 µM	c1csc(-c2c[nH]c3ncc(C4CCCCC4)cc23)n1 [Compound I-26, 2-(5-cyclohexyl-1H-pyrrolo[2,3-b]pyridin-3-yl)thiazole]
0.123 µM	CC1CCC(c2cnc3[nH]cc(-c4csc(C(=O)N5CCOCC5)n4)c3c2)CC1 (stereo not shown) [Compound I-21, {4-[5-(4-Methyl-cyclohexyl)-1H-pyrrolo[2,3-b]pyridin-3-yl]-thiazol-2-yl}-morpholin-4-yl-methanone]
